The IC50 is the midpoint of a concentration-inhibition curve.

The text below walks through data of patent publication US20060264460A1 (Wyeth, priority 2005, published 2006).

Each structure is given as a SMILES string.

T1 sequence (P41279 30-398): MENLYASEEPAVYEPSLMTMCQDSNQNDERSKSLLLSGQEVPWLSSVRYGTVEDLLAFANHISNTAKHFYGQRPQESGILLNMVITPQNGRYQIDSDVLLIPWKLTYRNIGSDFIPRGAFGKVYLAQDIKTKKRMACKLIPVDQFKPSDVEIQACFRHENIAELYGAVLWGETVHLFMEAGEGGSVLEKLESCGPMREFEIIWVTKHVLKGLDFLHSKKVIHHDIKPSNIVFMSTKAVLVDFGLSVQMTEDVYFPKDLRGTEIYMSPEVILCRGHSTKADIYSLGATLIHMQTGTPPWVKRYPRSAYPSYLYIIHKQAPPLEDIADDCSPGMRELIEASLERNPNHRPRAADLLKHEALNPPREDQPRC

The first assay has as its target T1, human Cot/Tpl2 kinase (Homo sapiens, UniProt P41279).
T1 construct: human Cot/Tpl2 kinase construct encoding residues 30-398; 6His (N); made in house; host or cells: Sf9 insect cells, baculovirus system (BD Biosciences)
The experiment in a line: Tpl2/Cot kinase assay: GST-MEK1 phosphorylation detected by ELISA (DELFIA Eu). Type of assay: biochemical. To be noted: 0.4 nM Tpl2, 35 nM GST-MEK1, 50 uM ATP, 1 h at 30° C. The method, boiled down:
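Substrate phosphorylation (GST-MEK1 Ser217/221) quantified by DELFIA europium ELISA, yielding IC50 values. Reaction: 1 h at 30° C, pH 7.2 MOPS buffer, 50 uM ATP, 35 nM GST-MEK1, 0.4 nM monomeric His-Tpl2 purified from Sf9 cells, compounds at 1% final DMSO; stopped with EDTA.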
A general note: ELISA stands for enzyme-linked immunosorbent assay.
In turn, `CCc1nc(CNc2cc(Cl)c3ncc(C#N)c(Nc4ccc(F)c(Cl)c4)c3c2)cn1CC(N)=O` [Example 193, 2-(4-((8-chloro-4-(3-chloro-4-fluorophenylamino)-3-cyanoquinolin-6-ylamino)methyl)-2-ethyl-1H-imidazol-1-yl)acetamide] came in with an IC50 of 0.41 µM. `N#Cc1cnc2ccc(NCc3nccn3CC(=O)O)cc2c1Nc1ccc(F)c(Cl)c1` [Example 136, 2-(2-((4-(3-chloro-4-fluorophenylamino)-3-cyanoquinolin-6-ylamino)methyl)-1H-imidazol-1-yl)acetic acid] came in with an IC50 of 0.064 µM.

Compound `N#Cc1cnc2ccc(NCc3cc[nH]n3)cc2c1Nc1ccc(F)c(Cl)c1` [Example 27, 4-(3-Chloro-4-fluoro-phenylamino)-6-[(1H-pyrazol-3-ylmethyl)-amino]-quinoline-3-carbonitrile] gave an IC50 of 0.074 µM. The IC50 values of the last two compounds are within 1.5-fold of each other. The same measure, in the same setting: with `N#Cc1cnc2ccc(NCC3CCOCC3)cc2c1Nc1ccc(F)c(Cl)c1` [Example 61, 4-(3-Chloro-4-fluoro-phenylamino)-6-[(tetrahydro-pyran-4-ylmethyl)-amino]-quinoline-3-carbonitrile] the figure was 0.81 µM. `CN1CCCC1CCn1cc(CNc2cc(Br)c3ncc(C#N)c(Nc4ccc(F)c(Cl)c4)c3c2)nn1` (centres unmarked) [Example 305, 8-Bromo-4-(3-chloro-4-fluoro-phenylamino)-6-({1-[2-(1-methyl-pyrrolidin-2-yl)-ethyl]-1H-[1,2,3]triazol-4-ylmethyl}-amino)-quinoline-3-carbonitrile] registered an IC50 of 0.025 µM. On the same count and under the same terms, with `Cc1ccc[n+]([O-])c1CNc1cc(Cl)c2ncc(C#N)c(Nc3ccc(F)c(Cl)c3)c2c1` [Example 196, 8-chloro-4-[(3-chloro-4-fluorophenyl)amino]-6-{[(3-methyl-1-oxidopyridin-2-yl)methyl]amino}quinoline-3-carbonitrile] the figure was 0.066 µM; with `Cn1ccnc1CNc1ccc2ncc(C#N)c(Nc3ccc(F)c(Cl)c3)c2c1` [Example 171, 4-(3-chloro-4-fluorophenylamino)-6-((1-methyl-1H-imidazol-2-yl)methylamino)quinoline-3-carbonitrile], 0.014 µM.

Consider `N#Cc1cnc2c(C(F)(F)F)cc(NCc3cnc[nH]3)cc2c1Nc1ccc(F)c(Cl)c1` [Example 229, 4-[(3-chloro-4-fluorophenyl)amino]-6-[(1H-imidazol-5-ylmethyl)amino]-8-(trifluoromethyl)quinoline-3-carbonitrile], for which the IC50 was 0.19 µM.

Consider `N#Cc1cnc2c(Cl)cc(NCc3cccc(N4CCOCC4)n3)cc2c1Nc1ccc(F)c(Cl)c1` [Example 274, 8-chloro-4-[(3-chloro-4-fluorophenyl)amino]-6-{[(6-morpholin-4-ylpyridin-2-yl)methyl]amino}quinoline-3-carbonitrile], for which the IC50 stood at 0.035 µM. The same measure, in the same setting: the value for `COCCOc1ccc(CNc2ccc3ncc(C#N)c(Nc4ccc(F)c(Cl)c4)c3c2)cc1Br` [Example 24, 6-[3-Bromo-4-(2-methoxy-ethoxy)-benzylamino]-4-(3-chloro-4-fluoro-phenylamino)-quinoline-3-carbonitrile] was 0.38 µM.

Still in this assay, the particulars now being: Table 2; Tpl2/Cot kinase, GST-MEK1 substrate, 50 uM ATP.
For `N#Cc1cnc2c(Br)cc(NCc3ccnn3-c3ccccc3)cc2c1Nc1ccc(F)c(Cl)c1` [Example 433], 0.25 µM corresponded to half-maximal inhibition (IC50). Same read-out and setting: the value for `N#Cc1cnc2c(Br)cc(NCc3cn(C4CCCC4)cn3)cc2c1Nc1ccc(F)c(Cl)c1` [Example 632] was 0.23 µM; that for `COCCn1cc(CNc2cc(Cl)c3ncc(C#N)c(Nc4ccc(F)c(Cl)c4)c3c2)nn1` [Example 562] was 0.02 µM. Compound `N#Cc1cnc2ccc(NCc3cccnc3)cc2c1Nc1cccc(Cl)c1` [Example 348] returned an IC50 of 0.09 µM. This IC50 is about 4.5-fold higher than that of the compound before.

Consider `CN(C)CCCOc1ccc(CNc2ccc3ncc(C#N)c(Nc4cccc(Cl)c4)c3c2)cc1` [Example 347], for which the IC50 was 0.6 µM. Compared with the last compound, the IC50 is about 6.7-fold higher. Turning to `N#Cc1cnc2ccc(NCc3ccc(S(N)(=O)=O)cc3)cc2c1NC1CCCC1` [Example 411], the IC50 turned out to be 7.3 µM. Compared with the last compound, the IC50 is about 12-fold higher. On the same count and under the same terms, with `CN(C)C(=O)Cn1cc(CNc2cc(Cl)c3ncc(C#N)c(Nc4ccc(F)c(Cl)c4)c3c2)nn1` [Example 613] the figure was 0.00054 µM; with `CN(CCn1cc(CNc2cc(Br)c3ncc(C#N)c(Nc4ccc(F)c(Cl)c4)c3c2)nn1)C(=O)OC(C)(C)C` [Example 500], 0.067 µM; with `CN1CCC(Cn2cc(CN(C)c3cc(Br)c4ncc(C#N)c(Nc5ccc(F)c(Cl)c5)c4c3)nn2)CC1` [Example 505], 0.29 µM. Same read-out and setting: with `Cc1cc(CNc2cc(Cl)c3ncc(C#N)c(Nc4ccc(F)c(Cl)c4)c3c2)n[nH]1` [Example 429] the figure was 0.1 µM.

`CN(CCCn1cc(CNc2cc(Cl)c3ncc(C#N)c(Nc4ccc(F)c(Cl)c4)c3c2)nn1)C1CCCCC1` [Example 609] gave an IC50 of 0.0018 µM. This IC50 is about 56-fold lower than that of the compound before. For `CN1CCCC1CCn1cnc(CNc2cc(Br)c3ncc(C#N)c(Nc4ccc(F)c(Cl)c4)c3c2)c1` (centres unmarked) [Example 548], the IC50 amounted to 0.034 µM. Consider `N#Cc1cnc2c(Cl)cc(NCc3cc[nH]n3)cc2c1Nc1ccc(F)c(Cl)c1` [Example 427], for which the IC50 worked out at 0.047 µM. Still for that read-out and setting: with `N#Cc1cnc2ccc(NCc3ccc(=O)[nH]c3)cc2c1Nc1ccc(F)c(F)c1` [Example 341] the figure was 0.4 µM; with `N#Cc1cnc2c(Br)cc(NCc3n[nH]c4c3CCCC4)cc2c1Nc1ccc(F)c(Cl)c1` [Example 448], 0.37 µM. Compound `N#Cc1cnc2c(Br)cc(N)cc2c1Nc1cccc(Cl)c1` [Example 365] yielded an IC50 of 0.39 µM. `CN1CC(CCn2cc(CNc3cc(Cl)c4ncc(C#N)c(Nc5ccc(F)c(Cl)c5)c4c3)nn2)N(C)C1=O` (centres unmarked) [Example 615] registered an IC50 of 0.0061 µM. On the same count and under the same terms, the value for `CC(C)N1CCC(Nc2ccc3ncc(C#N)c(Nc4ccc(F)c(Cl)c4)c3c2)CC1` [Example 366] was 25.5 µM.

The same assay, now with this note: Tpl2/Cot kinase, GST-MEK1 substrate, 50 uM ATP.
Compound `C=CCn1cc(CNc2cc(Br)c3ncc(C#N)c(Nc4ccc(F)c(Cl)c4)c3c2)nn1` [Example 732] gave an IC50 of 0.02 µM. `N#Cc1cnc2c(Br)cc(NCc3cnc4cnccn34)cc2c1Nc1ccc(F)c(Cl)c1` [Example 700] showed an IC50 of 0.11 µM. Against the preceding compound, the IC50 is about 5.5-fold higher.

In turn, `CC(C)(C)CN1CCC(n2cc(CNc3cc(Br)c4ncc(C#N)c(Nc5ccc(F)c(Cl)c5)c4c3)nn2)CC1` [Example 715] displayed an IC50 of 0.19 µM. Same read-out and setting: the value for `CN1CCC(Cn2cc(CNc3cc(Cl)c4ncc(C#N)c(Nc5ccc(F)c(Cl)c5)c4c3)nn2)CC1` [Example 825] was 0.037 µM; that for `N#Cc1cnc2c(Br)cc(NCc3cn(CCCN4CCCCC4)nn3)cc2c1Nc1ccc(F)c(Cl)c1` [Example 711] was 0.0034 µM; that for `CC(C)N1CCC[C@@H]1Cn1cc(CNc2cc(Cl)c3ncc(C#N)c(Nc4ccc(F)c(Cl)c4)c3c2)nn1` [Example 893] was 0.046 µM. As for `CN(C)CC(c1ccccc1)n1cc(CNc2cc(Br)c3ncc(C#N)c(Nc4ccc(F)c(Cl)c4)c3c2)nn1` (centres unmarked) [Example 739], the IC50 was 0.093 µM. The compound `CCN1CCC[C@H]1Cn1cc(CNc2cc(Cl)c3ncc(C#N)c(Nc4ccc(F)c(Cl)c4)c3c2)nn1` [Example 895] showed an IC50 of 0.01 µM.

For `CC(C)(C)OC(=O)N1CCCC(Cn2cc(CNc3cc(Cl)c4ncc(C#N)c(Nc5ccc(F)c(Cl)c5)c4c3)nn2)C1` (centres unmarked) [Example 714], half-maximal inhibition (IC50) was put at 0.25 µM. On the same count and under the same terms, with `N#Cc1cnc2c(Br)cc(NCc3cn(CCc4ccccn4)nn3)cc2c1Nc1ccc(F)c(Cl)c1` [Example 728] the figure was 0.0034 µM; with `CN(C)CC1CCCCC1Nc1cc(Cl)c2ncc(C#N)c(Nc3ccc(F)c(Cl)c3)c2c1` (centres unmarked) [Example 646], above 3 µM. `CC(C)N1CCC[C@H]1Cn1cc(CNc2cc(Cl)c3ncc(C#N)c(Nc4ccc(F)c(Cl)c4)c3c2)nn1` [Example 896]: the IC50 came out at 0.034 µM.

`COCCOCCn1cc(CNc2cc(Br)c3ncc(C#N)c(Nc4ccc(F)c(Cl)c4)c3c2)nn1` [Example 743] yielded an IC50 of 0.1 µM. Against the preceding compound, the IC50 is about 2.9-fold higher. On to `N#Cc1cnc2c(Cl)cc(NC3CCCC3Cl)cc2c1Nc1ccc(F)c(Cl)c1` (centres unmarked) [Example 782], for which the IC50 was above 3 µM. Regarding `CC(C)(C)OC(=O)N1CCC[C@H]1Cn1cc(CNc2cc(Cl)c3ncc(C#N)c(Nc4ccc(F)c(Cl)c4)c3c2)nn1` [Example 888], the IC50 was 0.2 µM. Regarding `CC(C)(C)OC(=O)N1CCC(Nc2ccc3ncc(C#N)c(Nc4ccc(F)c(Cl)c4)c3c2)CC1` [Example 656], the IC50 was above 40 µM.

Regarding `N#Cc1ccc(S(=O)(=O)NCCNc2cc(Cl)c3ncc(C#N)c(Nc4ccc(F)c(Cl)c4)c3c2)cc1` [Example 858], the IC50 was found to be 0.79 µM.

Still in this assay, the particulars now being: Tpl2/Cot kinase, GST-MEK1 substrate, 50 uM ATP, 1 h at 30° C.; Table 2.
`N#Cc1cnc2c(Cl)cc(NC[C@H]3C[C@H](O)CO3)cc2c1Nc1ccc(F)c(Cl)c1` [Example 932] had an IC50 of 0.41 µM. `CC(C)(C)OC(=O)N1CCCC(n2cc(CNc3cc(Cl)c4ncc(C#N)c(Nc5ccc(F)c(Cl)c5)c4c3)nn2)CC1` (centres unmarked) [Example 1006]: the IC50 amounted to 0.24 µM. `N#Cc1cnc2c(Cl)cc(NCc3cn(C4CCN(CC(F)F)CC4)nn3)cc2c1Nc1ccc(F)c(Cl)c1` [Example 1015] came in with an IC50 of 0.092 µM. Against the preceding compound, the IC50 is about 2.6-fold lower. Still for that read-out and setting: with `N#Cc1cnc2c(Cl)cc(NCc3cn(CC(O)c4ccncc4)nn3)cc2c1Nc1ccc(F)c(Cl)c1` (centres unmarked) [Example 1001] the figure was 0.019 µM. Same read-out and setting: with `N#Cc1cnc2c(Cl)cc(NCc3cn(C4CCN(CCF)CC4)nn3)cc2c1Nc1ccc(F)c(Cl)c1` [Example 1016] the figure was 0.015 µM. The compound `N#Cc1cnc2c(Cl)cc(NCc3cn(C4CCCN(CC(F)(F)F)CC4)nn3)cc2c1Nc1ccc(F)c(Cl)c1` (centres unmarked) [Example 1009] gave an IC50 of 0.27 µM. Compared with the last compound, the IC50 is about 18-fold higher.

Consider `CC(C)(C)CC(=O)N1CCN(CCn2cc(CNc3cc(Cl)c4ncc(C#N)c(Nc5ccc(F)c(Cl)c5)c4c3)nn2)CC1` [Example 960], for which the IC50 came to 0.13 µM. The same measure, in the same setting: with `N#Cc1cnc2c(Cl)cc(NCc3cn(C4CC5CCC(C4)N5C=O)nn3)cc2c1Nc1ccc(F)c(Cl)c1` (centres unmarked) [Example 1059] the figure was 0.014 µM.
